# Experiment: Blood levels after oral immediate release formulations
# Type: in vivo, human
# Conditions: for serum levels remained at or above: entire day
# Method: Blood levels of 17α-ethynylandrost-5-ene-3β,7β,17β-triol were determined in adult patients dosed with a range of dosages as oral immediate release formulations. The formulations were essentially as described in example 3, with capsules containing 1 mg/capsule, 5 mg/capsule, 10 mg/capsule, 25 mg/capsule or 50 mg/capsule. These unit doses were filled into hard gelatin capsules (size #1 for […] doses; size #2 for the 1 and 5 mg doses) and micronized compound (D90˜[…]) was used.
# Two capsules containing 1 mg of 17α-ethynylandrost-5-ene-3β,7β,17β-triol were administered twice per day to patients receiving a 4 mg/day total dose. […] Blood levels of the compound were at or above about 0.5 ng/mL for over 2 hours/day. […] In other patients receiving 4 mg/day for 28 days, there was a lower degree of response than patients receiving higher doses and 4 mg/day was considered to be the minimal effective dose.
# Analysis of some of the evaluable patients from example 1 gave the following results. […] Drug exposure over 24 hours (AUC0-24) in patients receiving 10 mg/day (5 mg twice per day) ranged from 15.7 ng·hr/mL to 190 ng·hr/mL and from 72 ng·hr/mL to 198 ng·hr/mL in patients receiving 20 mg/day (10 mg twice per day). Drug exposure in patients receiving 40 mg/day (20 mg twice per day) ranged from 60 ng·hr/mL to 209 ng·hr/mL.
# [1] = 2 mg twice per day (4 mg/day), n=2
compound,measurement,setting,value
"C#C[C@]1(O)CC[C@H]2[C@@H]3[C@@H](O)C=C4C[C@@H](O)CC[C@]4(C)[C@H]3CC[C@@]21C [17α-ethynylandrost-5-ene-3β,7β,17β-triol]",time with blood levels at or above about 0.5 ng/mL,2 mg twice per day,over 2 hours/day
same,peak blood levels,[1],1 to 2 ng/mL
same,time of peak blood levels after dosing,[1],2 to 3 h
same,blood levels maintained,"2 mg twice per day, for over 2 hours/day",≥ 0.5 ng/mL
same,peak serum levels,"10 mg twice per day (20 mg/day on a single day), n=2",10 to 30 ng/mL
same,serum levels remained at or above,10 mg twice per day,≥ 3 ng/mL
same,serum levels remained at or above,25 mg twice per day,≥ 3 ng/mL
same,peak serum levels,"50 mg twice per day (100 mg/day), n=2",80 to 150 ng/mL
same,serum levels remained at or above,50 mg twice per day (100 mg/day),≥ 10 ng/mL
same,induction of cytochromes (liver enzymes),100 mg/day dose level,not observed
same,fasted Cmax lower compared to patients dosed after a meal,fasted vs fed status,up to 60%
same,mean Cmax,"females (n=3), 20 mg/day (10 mg twice per day)",13.8 ng/mL
same,Cmax levels in females vs males,in vivo,sometimes higher
same,"total drug exposure levels, adult females vs adult males",in vivo,somewhat higher
same,mean Cmax,"males (n=4), 20 mg/day (10 mg twice per day)",15.1 ng/mL
same,mean Cmax,"pre-diabetic hyperglycemic females (n=6), 10 mg per day (5 mg twice per day)",11.2 ng/mL
same,mean Cmax,"pre-diabetic hyperglycemic males (n=2), 10 mg per day (5 mg twice per day)",3.8 ng/mL
same,mean Cmax,"rheumatoid arthritis patients, females (n=6), 40 mg/day (20 mg twice per day)",27.4 ng/mL
same,mean Cmax,"rheumatoid arthritis patients, males (n=2), 40 mg/day (20 mg twice per day)",43.7 ng/mL

# From patent US20100227841A1, “Patient populations and treatment methods” (Harbor BioSciencs, Inc., priority 2008, published 2010)
